The values below come from ChEMBL document CHEMBL5465560, “Selectivity Literature for EUbOPEN Chemogenomic Library” (2024).

Assay [1] deals with Serine/threonine-protein kinase Chk1 (Homo sapiens, UniProt O14757). As to the kind of experiment: Selectivity interaction (Enzyme panel (AstraZeneca, AlphaScreen, functional assay)) EUB0000621a CHEK1. For orientation: Alpha assays give light when donor and acceptor beads are brought close together.
The target in assay [2] is Casein kinase I isoform gamma-3 (Homo sapiens) (UniProt Q9Y6M4). As to the kind of experiment: Selectivity interaction (KinomeScan (DiscoverX)) EUB0001079a CSNK1G3. Conditions: at 1 µM.
The target in assay [3] is Homeodomain-interacting protein kinase 2 (Homo sapiens, UniProt Q9H2X6). In words: Selectivity interaction (KinomeScan (DiscoverX)) EUB0000695a HIPK2. Conditions: at 100 nM.
The target in assay [4] is T1, Mitogen-activated protein kinase kinase kinase 3 (Homo sapiens) (UniProt Q99759).
T1 sequence (whole entry): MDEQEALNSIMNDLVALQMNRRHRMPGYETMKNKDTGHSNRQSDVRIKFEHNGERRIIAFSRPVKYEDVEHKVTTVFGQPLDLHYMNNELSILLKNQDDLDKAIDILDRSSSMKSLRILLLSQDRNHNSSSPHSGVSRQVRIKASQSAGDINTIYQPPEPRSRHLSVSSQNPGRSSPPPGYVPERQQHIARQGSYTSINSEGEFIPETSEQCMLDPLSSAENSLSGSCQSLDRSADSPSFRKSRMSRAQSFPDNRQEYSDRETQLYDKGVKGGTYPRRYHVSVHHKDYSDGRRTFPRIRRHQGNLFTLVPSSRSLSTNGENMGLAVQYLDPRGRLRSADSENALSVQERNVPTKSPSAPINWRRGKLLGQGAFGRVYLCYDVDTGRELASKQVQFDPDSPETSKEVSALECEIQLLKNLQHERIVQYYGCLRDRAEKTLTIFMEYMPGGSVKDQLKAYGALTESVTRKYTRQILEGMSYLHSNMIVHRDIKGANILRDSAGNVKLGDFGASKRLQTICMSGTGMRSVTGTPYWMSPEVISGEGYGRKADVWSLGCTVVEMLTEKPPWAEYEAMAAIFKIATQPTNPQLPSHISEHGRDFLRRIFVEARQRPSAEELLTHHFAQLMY
As to the kind of experiment: Selectivity interaction (KinomeScan (DiscoverX)) EUB0000045b MAP3K3.

Assay [5] has as its target T2, Homeodomain-interacting protein kinase 4 (Homo sapiens) (UniProt Q8NE63).
T2 sequence (whole entry): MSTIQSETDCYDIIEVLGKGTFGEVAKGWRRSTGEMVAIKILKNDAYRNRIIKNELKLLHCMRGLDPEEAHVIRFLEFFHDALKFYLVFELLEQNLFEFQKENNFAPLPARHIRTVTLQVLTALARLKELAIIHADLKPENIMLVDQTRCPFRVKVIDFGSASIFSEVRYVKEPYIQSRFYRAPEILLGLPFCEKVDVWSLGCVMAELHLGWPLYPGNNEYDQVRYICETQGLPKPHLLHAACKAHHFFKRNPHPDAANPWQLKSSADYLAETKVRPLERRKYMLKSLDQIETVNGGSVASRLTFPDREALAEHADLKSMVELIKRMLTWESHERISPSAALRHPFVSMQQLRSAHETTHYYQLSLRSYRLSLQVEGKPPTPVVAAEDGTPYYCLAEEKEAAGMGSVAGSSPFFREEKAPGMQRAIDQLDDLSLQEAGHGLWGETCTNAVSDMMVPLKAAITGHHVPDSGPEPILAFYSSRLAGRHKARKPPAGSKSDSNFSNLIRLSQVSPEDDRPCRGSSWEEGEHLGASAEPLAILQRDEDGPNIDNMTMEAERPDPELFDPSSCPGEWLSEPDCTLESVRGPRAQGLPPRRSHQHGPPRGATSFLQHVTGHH
In words: Selectivity interaction (KinomeScan (DiscoverX)) EUB0000666a HIPK4. Conditions: at 10 µM.

The target in assay [6] is Serine/threonine-protein kinase N1 (Homo sapiens, UniProt Q16512). As to the kind of experiment: Selectivity interaction (KinomeScan (DiscoverX)) EUB0000607a PKN1. Conditions: at 10 µM.
Assay [7] has as its target T3, Serine/threonine-protein kinase 36 (Homo sapiens) (UniProt Q9NRP7).
T3 sequence (whole entry): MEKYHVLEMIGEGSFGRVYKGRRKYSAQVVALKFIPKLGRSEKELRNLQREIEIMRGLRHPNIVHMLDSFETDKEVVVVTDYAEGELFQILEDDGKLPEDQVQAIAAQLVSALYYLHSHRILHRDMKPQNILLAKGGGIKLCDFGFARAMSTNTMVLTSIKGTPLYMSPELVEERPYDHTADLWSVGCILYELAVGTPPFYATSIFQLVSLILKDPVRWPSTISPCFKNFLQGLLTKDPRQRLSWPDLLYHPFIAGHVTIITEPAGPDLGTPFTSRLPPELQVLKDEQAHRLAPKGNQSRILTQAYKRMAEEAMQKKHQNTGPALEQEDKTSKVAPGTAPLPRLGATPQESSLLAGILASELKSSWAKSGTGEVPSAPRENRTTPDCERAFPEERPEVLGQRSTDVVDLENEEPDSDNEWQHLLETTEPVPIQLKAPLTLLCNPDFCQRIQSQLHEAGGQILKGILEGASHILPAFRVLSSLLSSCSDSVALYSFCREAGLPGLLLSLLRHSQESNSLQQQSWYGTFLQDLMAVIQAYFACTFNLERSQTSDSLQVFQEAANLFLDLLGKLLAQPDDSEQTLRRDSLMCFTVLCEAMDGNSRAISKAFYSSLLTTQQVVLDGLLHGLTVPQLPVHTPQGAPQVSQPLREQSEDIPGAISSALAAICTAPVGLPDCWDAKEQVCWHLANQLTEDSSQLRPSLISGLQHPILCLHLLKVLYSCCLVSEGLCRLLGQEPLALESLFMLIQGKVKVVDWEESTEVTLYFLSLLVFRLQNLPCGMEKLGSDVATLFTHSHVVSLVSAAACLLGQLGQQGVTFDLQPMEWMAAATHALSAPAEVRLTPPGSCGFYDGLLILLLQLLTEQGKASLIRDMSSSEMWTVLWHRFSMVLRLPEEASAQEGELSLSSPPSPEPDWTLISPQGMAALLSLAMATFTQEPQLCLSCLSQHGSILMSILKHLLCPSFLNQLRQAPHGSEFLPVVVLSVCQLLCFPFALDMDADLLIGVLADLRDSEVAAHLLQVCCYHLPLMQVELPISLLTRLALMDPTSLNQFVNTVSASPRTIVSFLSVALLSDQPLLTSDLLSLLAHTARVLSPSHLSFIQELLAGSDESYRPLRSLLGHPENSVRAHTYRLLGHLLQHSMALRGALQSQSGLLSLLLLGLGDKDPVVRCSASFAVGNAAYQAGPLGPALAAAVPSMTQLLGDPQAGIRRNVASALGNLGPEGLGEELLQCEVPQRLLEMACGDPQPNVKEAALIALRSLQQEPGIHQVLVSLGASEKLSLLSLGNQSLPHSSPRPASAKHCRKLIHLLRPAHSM
As to the kind of experiment: Selectivity interaction (KinomeScan (DiscoverX)) EUB0000229b STK36. Particulars: at 10 µM.

Each structure is given as a SMILES string.

Casein kinase I isoform gamma-3 (Homo sapiens), sequence (Q9Y6M4 whole entry, looked up, canonical isoform): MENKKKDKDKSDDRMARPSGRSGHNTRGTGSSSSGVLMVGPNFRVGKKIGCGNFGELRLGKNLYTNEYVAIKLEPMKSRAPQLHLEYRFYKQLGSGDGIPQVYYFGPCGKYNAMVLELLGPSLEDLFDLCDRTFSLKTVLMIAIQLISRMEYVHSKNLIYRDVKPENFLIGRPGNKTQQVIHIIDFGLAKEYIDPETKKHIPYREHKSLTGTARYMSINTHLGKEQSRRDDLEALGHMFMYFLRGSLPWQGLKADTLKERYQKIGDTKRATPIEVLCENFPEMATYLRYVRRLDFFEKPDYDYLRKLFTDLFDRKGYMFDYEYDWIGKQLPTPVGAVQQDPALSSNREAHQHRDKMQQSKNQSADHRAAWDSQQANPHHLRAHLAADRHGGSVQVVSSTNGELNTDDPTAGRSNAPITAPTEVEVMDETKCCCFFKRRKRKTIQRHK
Serine/threonine-protein kinase N1, sequence (Q16512 2-942 limits assumed): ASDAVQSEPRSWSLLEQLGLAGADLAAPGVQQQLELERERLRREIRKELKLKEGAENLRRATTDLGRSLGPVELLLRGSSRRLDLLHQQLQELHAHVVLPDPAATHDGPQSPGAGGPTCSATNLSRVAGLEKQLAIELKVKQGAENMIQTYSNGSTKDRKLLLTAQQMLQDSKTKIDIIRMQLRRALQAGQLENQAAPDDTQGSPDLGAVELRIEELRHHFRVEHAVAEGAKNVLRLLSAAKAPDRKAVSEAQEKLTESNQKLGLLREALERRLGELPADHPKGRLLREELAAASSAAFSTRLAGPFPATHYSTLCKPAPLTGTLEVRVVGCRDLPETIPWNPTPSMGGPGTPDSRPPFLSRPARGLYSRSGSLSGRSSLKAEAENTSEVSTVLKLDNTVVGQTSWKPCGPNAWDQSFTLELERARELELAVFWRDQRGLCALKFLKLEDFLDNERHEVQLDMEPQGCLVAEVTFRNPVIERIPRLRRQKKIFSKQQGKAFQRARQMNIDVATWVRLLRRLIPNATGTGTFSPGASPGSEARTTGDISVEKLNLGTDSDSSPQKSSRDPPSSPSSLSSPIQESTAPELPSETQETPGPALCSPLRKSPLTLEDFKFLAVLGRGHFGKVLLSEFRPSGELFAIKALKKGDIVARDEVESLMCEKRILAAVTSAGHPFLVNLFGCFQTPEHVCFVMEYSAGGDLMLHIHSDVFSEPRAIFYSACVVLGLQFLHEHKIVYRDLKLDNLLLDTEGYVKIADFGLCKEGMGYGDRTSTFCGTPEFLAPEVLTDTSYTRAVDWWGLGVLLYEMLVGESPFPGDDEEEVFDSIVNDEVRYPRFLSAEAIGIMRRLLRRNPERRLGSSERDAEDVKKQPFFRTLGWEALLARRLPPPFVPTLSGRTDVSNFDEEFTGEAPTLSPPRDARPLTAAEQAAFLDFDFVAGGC
Serine/threonine-protein kinase Chk1, sequence (O14757 whole entry, canonical isoform): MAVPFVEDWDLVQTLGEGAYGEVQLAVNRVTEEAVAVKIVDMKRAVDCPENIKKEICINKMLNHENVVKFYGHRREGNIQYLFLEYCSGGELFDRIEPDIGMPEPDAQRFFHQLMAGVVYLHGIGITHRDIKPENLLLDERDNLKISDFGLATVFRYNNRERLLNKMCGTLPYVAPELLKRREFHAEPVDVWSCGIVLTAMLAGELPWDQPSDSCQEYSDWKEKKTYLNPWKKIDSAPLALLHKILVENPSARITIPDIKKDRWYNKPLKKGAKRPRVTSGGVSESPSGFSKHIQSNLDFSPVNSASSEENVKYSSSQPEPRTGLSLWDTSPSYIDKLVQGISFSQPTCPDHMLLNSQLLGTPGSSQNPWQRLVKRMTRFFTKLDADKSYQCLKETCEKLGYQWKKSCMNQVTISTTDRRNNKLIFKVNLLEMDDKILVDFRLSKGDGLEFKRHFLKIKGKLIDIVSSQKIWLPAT
Homeodomain-interacting protein kinase 2, sequence (Q9H2X6 whole entry, looked up): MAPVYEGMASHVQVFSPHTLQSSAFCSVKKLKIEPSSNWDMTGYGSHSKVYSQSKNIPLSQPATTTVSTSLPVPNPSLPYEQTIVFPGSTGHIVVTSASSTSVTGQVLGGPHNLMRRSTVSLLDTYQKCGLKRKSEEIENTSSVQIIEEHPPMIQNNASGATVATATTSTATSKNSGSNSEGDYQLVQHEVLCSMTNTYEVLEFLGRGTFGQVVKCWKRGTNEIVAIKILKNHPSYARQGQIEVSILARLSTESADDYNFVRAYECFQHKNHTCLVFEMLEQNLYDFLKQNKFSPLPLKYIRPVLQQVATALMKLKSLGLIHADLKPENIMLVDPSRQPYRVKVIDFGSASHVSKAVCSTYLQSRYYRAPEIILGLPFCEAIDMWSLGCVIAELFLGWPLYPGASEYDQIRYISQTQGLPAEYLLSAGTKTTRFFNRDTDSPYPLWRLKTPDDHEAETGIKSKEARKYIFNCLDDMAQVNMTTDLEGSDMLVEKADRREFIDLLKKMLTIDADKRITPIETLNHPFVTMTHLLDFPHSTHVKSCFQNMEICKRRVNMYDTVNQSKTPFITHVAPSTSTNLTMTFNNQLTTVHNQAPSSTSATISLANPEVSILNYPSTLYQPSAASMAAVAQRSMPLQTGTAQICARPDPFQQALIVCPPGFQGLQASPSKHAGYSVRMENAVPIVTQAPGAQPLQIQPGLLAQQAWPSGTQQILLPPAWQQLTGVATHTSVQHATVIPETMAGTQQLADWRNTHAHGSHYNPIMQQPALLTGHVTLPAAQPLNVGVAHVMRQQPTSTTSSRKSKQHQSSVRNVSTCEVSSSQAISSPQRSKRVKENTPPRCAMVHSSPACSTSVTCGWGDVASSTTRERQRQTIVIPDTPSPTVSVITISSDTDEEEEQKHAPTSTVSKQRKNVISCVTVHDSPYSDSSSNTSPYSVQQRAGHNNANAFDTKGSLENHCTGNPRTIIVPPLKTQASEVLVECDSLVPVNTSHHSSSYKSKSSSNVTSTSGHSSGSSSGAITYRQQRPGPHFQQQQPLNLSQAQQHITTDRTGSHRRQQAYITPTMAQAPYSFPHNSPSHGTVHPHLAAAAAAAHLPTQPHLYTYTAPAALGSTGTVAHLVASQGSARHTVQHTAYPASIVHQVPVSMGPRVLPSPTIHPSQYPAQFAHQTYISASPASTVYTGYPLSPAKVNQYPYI

`Cc1cc([C@@H](C)Nc2ccccc2C(=O)O)c2nc(N3CCOCC3)cc(=O)n2c1` [AZD-6482]: the IC50 (in general, the point on the concentration scale where inhibition reaches its midpoint) in assay [1] is above 1000 µM.

In assay [2], `Nc1cnc(N2CCc3cc(S(=O)(=O)Nc4c(F)cc(Cl)cc4F)cc(N4CCCC4=O)c32)nc1` [TP-020n] registered a % of control of 78%.

In turn, `Cc1cc(F)c(C(=O)Nc2cccc(-c3nncn3C(C)C)n2)cc1-n1cnc(C2CC2)c1` returned a % of control in assay [3] of 83%.

Take `C=CC(=O)Nc1cc(-n2c(=O)ccc3cnc4ccc(-c5ccc(NS(C)(=O)=O)cc5)cc4c32)ccc1C`: the % of control was found to be 100% in assay [4] (at 1 µM) and 79% in assay [4] (at 10 µM).

Molecule `O=C(NOC[C@H](O)CO)c1ccc(F)c(F)c1Nc1ccc(I)cc1F` displayed a % of control in assay [5] of 100%.

Take `CNC(=O)Nc1ccc(-c2nc(N3CC4CCC(C3)O4)c3cnn(C4CCC5(CC4)OCCO5)c3n2)cc1`: the % of control in assay [6] turned out to be 100%.

In assay [7], `COc1cc(N(C)c2ccnc3ccc(C(F)(F)F)cc23)cc(OC)c1OC` returned a % binding of 100%.
